The source of these data is ChEMBL document CHEMBL3217750, “Small-molecule inhibitors of dimeric transcription factors: Antagonism of proteinprotein and proteinDNA interactions” (Medchemcomm, 2012).

In general, IC50 refers to the concentration at which inhibition is half-maximal.

Bridge positions count the residues as written; N and C are the ends. Peptide text beside a SMILES is read from it.

In one assay the target is Transcription factor Jun (Homo sapiens, UniProt P05412). The assay can be described thus: Inhibition of AP-1 complex (unknown origin).
In assay [1] the target is T1, c-Myc/Max (Homo sapiens, UniProt P01106+P61244). The assay can be described thus: Inhibition of c-Myc/Max (unknown origin). In kind it is protein-complex assay.
Assay [2] is filed under the species Homo sapiens. As to the kind of experiment: Selectivity ratio of IC50 for c-Myc/Max (unknown origin) to IC50 for AP-1 complex (unknown origin).
Assay [3] has as its target T1, c-Myc/Max. The assay can be described thus: Inhibition of c-Myc/Max (unknown origin) DNA-binding activity preincubated for 1 hr followed by DNA addition measured after 15 mins by electrophoretic mobility shift assay. In kind it is protein-complex assay. Background: A gel shift assay detects complexes by their altered migration in electrophoresis.
The next assay addresses Transcription factor AP1 (Homo sapiens, UniProt P01100+P05412). As to the kind of experiment: Inhibition of c-FOS/AP1 (unknown origin). The format is protein-complex assay.
In assay [4] the target is T1, c-Myc/Max. As to the kind of experiment: Inhibition of c-Myc/Max (unknown origin) DNA-binding activity. The format is protein-complex assay.
For a further assay, the target named is Protein max (Homo sapiens, UniProt P61244). As to the kind of experiment: Inhibition of dimerized Max (unknown origin) DNA-binding activity.
For assay [5], the species on record is Homo sapiens. The assay can be described thus: Selectivity ratio of IC50 for dimerized Max (unknown origin) to IC50 for c-Myc/Max (unknown origin).
For assay [6], the target named is T2, Lymphoid enhancer-binding factor 1 (Homo sapiens, UniProt Q9UJU2). As to the kind of experiment: Inhibition of LEF-1-mediated gene transcription in HEK293 cells after 48 hrs by luciferase reporter gene assay. In kind it is cell-based. (Reporter assays use an easily measured gene product as a stand-in for the process of interest.)
Assay [7] addresses T2, Lymphoid enhancer-binding factor 1. As to the kind of experiment: Inhibition of LEF-1 (unknown origin) expressed in CEF assessed as inhibition of beta catenin interaction by electrophoretic mobility shift assay.
Assay [8] has as its target T3, Myc proto-oncogene protein (Homo sapiens, UniProt P01106). As to the kind of experiment: Inhibition of c-MYC in human HL60 cells by chemiluminescence assay. In kind it is cell-based, HL-60.
In the next assay the test system is HL-60. As to the kind of experiment: Antiproliferative activity against human HL60 cells. The format is functional, cell-based.
Assay [9] addresses T3, Myc proto-oncogene protein. The assay can be described thus: Binding affinity to c-MYC (353 to 437) (unknown origin) by fluorescence polarization assay. In general terms: Fluorescence polarisation rises when a labelled molecule tumbles more slowly, as on binding a larger partner.
The species named for assay [10] is Homo sapiens. As to the kind of experiment: Ratio of curcumin IC50 to compound IC50 for AP-1 complex (unknown origin).

T2 sequence (Q9UJU2 whole entry): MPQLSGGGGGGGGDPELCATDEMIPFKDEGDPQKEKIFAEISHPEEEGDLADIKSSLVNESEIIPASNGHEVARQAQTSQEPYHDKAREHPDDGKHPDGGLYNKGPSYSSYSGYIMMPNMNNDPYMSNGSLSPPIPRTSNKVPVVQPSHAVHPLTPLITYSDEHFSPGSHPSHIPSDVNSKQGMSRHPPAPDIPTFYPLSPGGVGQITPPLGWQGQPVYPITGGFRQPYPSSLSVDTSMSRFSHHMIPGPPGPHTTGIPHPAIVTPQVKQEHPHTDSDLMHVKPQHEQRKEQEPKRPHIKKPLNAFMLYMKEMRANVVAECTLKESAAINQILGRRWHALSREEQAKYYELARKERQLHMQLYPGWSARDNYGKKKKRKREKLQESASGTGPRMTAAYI
T1 sequence (P01106 whole entry): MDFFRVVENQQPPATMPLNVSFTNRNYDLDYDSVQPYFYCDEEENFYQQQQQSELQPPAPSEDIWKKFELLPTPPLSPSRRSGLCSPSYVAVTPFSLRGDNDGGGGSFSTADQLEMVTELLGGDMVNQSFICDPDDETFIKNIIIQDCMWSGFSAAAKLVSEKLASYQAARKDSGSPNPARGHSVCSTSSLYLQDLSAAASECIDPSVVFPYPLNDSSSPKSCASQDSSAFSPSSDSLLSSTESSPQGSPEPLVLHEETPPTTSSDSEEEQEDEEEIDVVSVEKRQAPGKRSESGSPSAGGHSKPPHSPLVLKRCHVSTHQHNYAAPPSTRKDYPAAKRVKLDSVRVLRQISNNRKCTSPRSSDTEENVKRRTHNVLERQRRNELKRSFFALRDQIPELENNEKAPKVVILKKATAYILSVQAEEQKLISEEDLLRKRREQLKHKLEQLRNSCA
T1 sequence (P61244 whole entry): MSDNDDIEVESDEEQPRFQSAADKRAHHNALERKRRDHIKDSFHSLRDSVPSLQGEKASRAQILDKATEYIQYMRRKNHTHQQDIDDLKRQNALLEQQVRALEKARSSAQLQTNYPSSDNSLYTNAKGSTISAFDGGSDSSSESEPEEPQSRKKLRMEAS
T3 sequence (P01106 whole entry): as the sequence (P01106 whole entry) above
Protein max, sequence (P61244 whole entry): as the sequence (P61244 whole entry) above
Transcription factor AP1, sequence (P05412 whole entry): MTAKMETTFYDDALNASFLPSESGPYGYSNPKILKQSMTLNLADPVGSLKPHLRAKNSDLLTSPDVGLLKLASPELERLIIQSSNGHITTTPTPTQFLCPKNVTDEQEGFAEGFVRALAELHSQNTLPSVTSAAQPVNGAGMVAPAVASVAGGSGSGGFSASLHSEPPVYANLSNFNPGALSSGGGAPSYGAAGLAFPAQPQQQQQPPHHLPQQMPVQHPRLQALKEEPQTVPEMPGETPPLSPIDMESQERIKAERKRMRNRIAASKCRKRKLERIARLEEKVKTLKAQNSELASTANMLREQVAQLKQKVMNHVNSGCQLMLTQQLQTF
Transcription factor AP1, sequence (P01100 whole entry): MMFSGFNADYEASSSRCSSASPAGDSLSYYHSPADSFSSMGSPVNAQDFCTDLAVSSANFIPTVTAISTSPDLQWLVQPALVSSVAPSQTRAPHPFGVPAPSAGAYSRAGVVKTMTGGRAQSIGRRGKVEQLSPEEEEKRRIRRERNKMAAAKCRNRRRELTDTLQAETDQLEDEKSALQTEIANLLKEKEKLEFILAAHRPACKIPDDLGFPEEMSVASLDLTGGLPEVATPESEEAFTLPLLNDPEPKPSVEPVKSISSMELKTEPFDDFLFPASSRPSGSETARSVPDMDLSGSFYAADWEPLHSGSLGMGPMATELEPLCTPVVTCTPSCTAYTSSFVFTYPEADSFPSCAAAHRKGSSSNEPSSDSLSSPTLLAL
Transcription factor Jun, sequence (P05412 whole entry): as the sequence (P05412 whole entry) above

As for `CC1(C)CC[C@]2(C(=O)O)CC[C@]3(C)C(=CC[C@@H]4[C@@]5(C)CC[C@H](O[C@@H]6O[C@H](C(=O)O)[C@@H](O)[C@H](O[C@@H]7OC[C@H](O)[C@H](O)[C@H]7O)[C@H]6O)C(C)(C)[C@@H]5CC[C@]43C)[C@@H]2C1`, the IC50 came to 30 µM against Transcription factor Jun and 4000 µM at c-Myc/Max [1]. Besides, the Ratio IC50 in the assay listed under Homo sapiens [2] is over 100. Consider `CNC(=O)c1cc2c(cc1C(=O)NC[C@H](NS(=O)(=O)c1c(Cl)sc(Cl)c1Br)C(=O)OC(C)(C)C)CN(C(=O)CCC1CCN(C(=O)OC(C)(C)C)CC1)C2`, for which the IC50 at c-Myc/Max [3] worked out at 50 µM. With `O=C(O)CCc1cc(C(=O)c2ccc(OC3CCCC3)cc2O)ccc1OCc1ccc2c(O)noc2c1`, at Transcription factor AP1, the IC50 is 200 µM.

Consider `CCOC(=O)c1cnn(-c2ccccc2)c1NC(=O)c1cc2nc(-c3ccco3)cc(C(F)(F)Cl)n2n1`, for which the IC50 at c-Myc/Max [4] was found to be 40 µM; at Protein max, 88 µM. Also, the Ratio IC50 in the assay listed under Homo sapiens [5] was over 2. Regarding `COc1ccc(CNC(=O)c2cc3nc(-c4cccs4)cc(C(F)(F)F)n3n2)cc1`, the values for the IC50 on c-Myc/Max [4] and on Protein max were 30 µM and 72 µM, respectively. For the molecule `COC(=O)c1cc2cc(NC(=O)c3cc4cc(NC(=O)c5cc(NC(=O)OC(C)(C)C)cs5)ccc4[nH]3)ccc2[nH]1`, the concentration for half-maximal inhibition (IC50) in [6] was 6.2 µM; in assay [7], 31 µM. Turning to `CC(C)c1ccc(/C=C2\SC(=S)N(CN3CCCCC3)C2=O)cc1`, the half-inhibitory concentration (IC50) in [8] worked out at 29 µM. `CC(=O)N[C@H]1CSSC[C@@H](C(N)=O)NC(=O)CNC(=O)[C@H](CC(=O)O)NC(=O)[C@H](C)NC(=O)[C@H](CC(C)C)NC(=O)[C@H](CC(=O)O)NC(=O)[C@H](CC(C)C)NC(=O)[C@H](CCC(N)=O)NC(=O)CNC1=O` (Ac-CGQLDLADGC-NH2; disulfide 1-10): the 50% inhibitory concentration (IC50) against Transcription factor AP1 was 8 µM.

In turn, `CCc1ccc(/C=C2\SC(=S)NC2=O)cc1` gave a half-inhibitory concentration (IC50) with HL-60 of 49 µM. Also, the Activity in [9] was 5.3 µM. `COc1cc(/C=C/C(=O)/C=C(O)/C=C/c2cc(OC)c(O)c([N+](=O)[O-])c2)cc([N+](=O)[O-])c1O` had an IC50 on Transcription factor Jun of 5.4 µM. Besides, the Ratio IC50 in the assay listed under Homo sapiens [10] amounted to 90. For the molecule `COC(=O)c1cnc2ccc(NC(=O)c3ccc4c(c3)c3cc(NC(=O)c5cc6cc(NC(=O)CCCN(C)C)ccc6o5)ccc3n4C)cc2c1`, the half-inhibitory concentration (IC50) in assay [6] is 0.15 µM; in [7], 115 µM. On to `O=[N+]([O-])c1ccc(Nc2ccccc2-c2ccccc2)c2nonc12`, for which the Activity in assay [9] was found to be 2.8 µM.
